The results in this text go back to ChEMBL document CHEMBL2086254, “Synthesis and identification of novel indolo[2,3-a]pyrimido[5,4-c]carbazoles as a new class of anti-cancer agents” (Eur J Med Chem, 2012).

The source made the active and inactive calls. No cut-off for these calls is given here.

Test [1] relates to SNB-75. Briefly: Cytotoxicity against human SNB75 cells assessed as cell growth at 10 uM after 48 hrs by SRB assay relative to control. It counts as functional. As to conditions: SNB-75, 48 h, read-out: Activity. Background: Sulforhodamine B stains cellular protein and so reports cell mass.
The test system of test [2] is Malme-3M. Briefly: Cytotoxicity against human MALME-3M cells assessed as cell growth at 10 uM after 48 hrs by SRB assay relative to control. It counts as functional. As to conditions: read-out: Activity.
In test [3] the test system is SR. Put plainly: Cytotoxicity against human SR cells assessed as cell growth at 10 uM after 48 hrs by SRB assay relative to control. Format: functional. As to conditions: read-out: Activity.
Test [4] concerns MCF7. Put plainly: Cytotoxicity against human MCF7 cells assessed as cell growth at 10 uM after 48 hrs by SRB assay relative to control. Format: functional. As to conditions: MCF7, 48 h, read-out: Activity.
Test [5] deals with HOP-62. Briefly: Cytotoxicity against human HOP62 cells assessed as cell growth at 10 uM after 48 hrs by SRB assay relative to control. Format: functional. The following applies: HOP-62, 48 h, read-out: Activity.
For test [6], the system named is NCI-H522. Put plainly: Cytotoxicity against human NCI-H522 cells assessed as cell growth at 10 uM after 48 hrs by SRB assay relative to control. It counts as functional. The following applies: NCI-H522, 48 h, read-out: Activity.
The test system of test [7] is 786-0. Briefly: Cytotoxicity against human 786-0 cells assessed as cell growth at 10 uM after 48 hrs by SRB assay relative to control. It counts as functional. As to conditions: 786-0, 48 h, read-out: Activity.
Test [8] deals with HT-29. Put plainly: Cytotoxicity against human HT-29 cells assessed as cell growth at 10 uM after 48 hrs by SRB assay relative to control. The following applies: HT-29, 48 h, read-out: Activity. It counts as functional.
The subject of test [9] is SF-295. Briefly: Cytotoxicity against human SF295 cells assessed as cell growth at 10 uM after 48 hrs by SRB assay relative to control. Format: functional. The following applies: SF-295, 48 h, read-out: Activity.
In test [10] the test system is HCC 2998. Briefly: Cytotoxicity against human HCC2998 cells assessed as cell growth at 10 uM after 48 hrs by SRB assay relative to control. As to conditions: HCC 2998, 48 h, read-out: Activity. It counts as functional.
Test [11] has as its system NCI-H23. Briefly: Cytotoxicity against human NCI-H23 cells assessed as cell growth at 10 uM after 48 hrs by SRB assay relative to control. The following applies: NCI-H23, 48 h, read-out: Activity. Format: functional.
Test [12] concerns BT-549. Put plainly: Cytotoxicity against human BT549 cells assessed as cell growth at 10 uM after 48 hrs by SRB assay relative to control. Format: functional. As to conditions: BT-549, 48 h, read-out: Activity.
Test [13] has as its system COLO 205. Briefly: Cytotoxicity against human COLO205 cells assessed as cell growth at 10 uM after 48 hrs by SRB assay relative to control. Format: functional. As to conditions: COLO 205, 48 h, read-out: Activity.
Test [14] has as its system OVCAR-3. Put plainly: Cytotoxicity against human OVCAR3 cells assessed as cell growth at 10 uM after 48 hrs by SRB assay relative to control. It counts as functional. The following applies: OVCAR-3, 48 h, read-out: Activity.
The target in test [15] is DNA topoisomerase 2-alpha (Homo sapiens) (UniProt P11388). Put plainly: Inhibition of human DNA topoisomerase 2 at 100 uM after 1 hr by agarose gel circular DNA decatenation assay.
Chain of DNA topoisomerase 2-alpha (Homo sapiens) (P11388 whole entry): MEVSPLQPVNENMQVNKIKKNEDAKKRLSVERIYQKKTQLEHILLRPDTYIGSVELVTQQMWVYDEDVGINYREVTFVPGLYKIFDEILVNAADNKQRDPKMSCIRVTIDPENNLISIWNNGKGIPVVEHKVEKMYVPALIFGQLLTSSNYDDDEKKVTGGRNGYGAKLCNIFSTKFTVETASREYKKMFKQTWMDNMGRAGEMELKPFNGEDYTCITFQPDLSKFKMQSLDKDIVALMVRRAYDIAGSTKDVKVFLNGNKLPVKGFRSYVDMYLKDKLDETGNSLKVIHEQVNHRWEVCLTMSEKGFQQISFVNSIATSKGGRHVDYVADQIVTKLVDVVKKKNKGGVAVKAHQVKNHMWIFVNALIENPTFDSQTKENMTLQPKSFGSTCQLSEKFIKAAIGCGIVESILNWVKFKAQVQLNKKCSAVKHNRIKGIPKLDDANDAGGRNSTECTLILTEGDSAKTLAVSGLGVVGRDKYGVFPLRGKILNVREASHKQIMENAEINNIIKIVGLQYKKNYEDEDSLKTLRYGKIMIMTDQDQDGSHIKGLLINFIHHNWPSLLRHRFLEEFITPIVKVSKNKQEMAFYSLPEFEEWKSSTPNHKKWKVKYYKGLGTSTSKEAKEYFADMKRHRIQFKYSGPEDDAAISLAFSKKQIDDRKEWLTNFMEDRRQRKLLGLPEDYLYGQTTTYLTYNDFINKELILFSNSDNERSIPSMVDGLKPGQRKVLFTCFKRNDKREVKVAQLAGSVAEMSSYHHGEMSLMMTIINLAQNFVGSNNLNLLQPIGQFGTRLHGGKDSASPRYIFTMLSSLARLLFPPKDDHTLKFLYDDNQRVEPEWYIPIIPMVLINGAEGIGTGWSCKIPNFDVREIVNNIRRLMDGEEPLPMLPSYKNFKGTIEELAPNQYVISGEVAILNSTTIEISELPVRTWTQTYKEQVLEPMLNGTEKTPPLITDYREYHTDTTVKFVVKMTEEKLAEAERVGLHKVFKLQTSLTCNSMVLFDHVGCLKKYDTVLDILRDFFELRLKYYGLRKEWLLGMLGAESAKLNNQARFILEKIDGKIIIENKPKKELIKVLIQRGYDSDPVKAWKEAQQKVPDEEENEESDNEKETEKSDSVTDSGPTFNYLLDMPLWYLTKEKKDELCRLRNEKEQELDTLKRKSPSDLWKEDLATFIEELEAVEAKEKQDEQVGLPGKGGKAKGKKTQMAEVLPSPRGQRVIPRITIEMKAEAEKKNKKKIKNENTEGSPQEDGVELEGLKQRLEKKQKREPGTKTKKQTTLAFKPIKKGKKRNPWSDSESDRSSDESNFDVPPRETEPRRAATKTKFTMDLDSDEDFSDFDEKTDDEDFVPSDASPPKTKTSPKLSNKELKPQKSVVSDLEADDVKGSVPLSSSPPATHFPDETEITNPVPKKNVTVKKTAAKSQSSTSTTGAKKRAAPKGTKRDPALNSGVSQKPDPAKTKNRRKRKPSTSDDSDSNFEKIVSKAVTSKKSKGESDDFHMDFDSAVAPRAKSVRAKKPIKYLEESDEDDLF
The test system of test [16] is NCI-H322M. Briefly: Cytotoxicity against human NCI-H322M cells assessed as cell growth at 10 uM after 48 hrs by SRB assay relative to control. Format: functional. As to conditions: read-out: Activity.
Test [17] concerns HL-60. Briefly: Cytotoxicity against human HL60 cells assessed as cell growth at 10 uM after 48 hrs by SRB assay relative to control. It counts as functional. The following applies: HL-60, 48 h, read-out: Activity.
Test [18] concerns RXF 393. Put plainly: Cytotoxicity against human RXF393 cells assessed as cell growth at 10 uM after 48 hrs by SRB assay relative to control. Format: functional. The following applies: RXF 393, 48 h, read-out: Activity.
Test [19] deals with MDA-MB-231. Put plainly: Cytotoxicity against human MDA-MB-231 cells assessed as cell growth at 10 uM after 48 hrs by SRB assay relative to control. It counts as functional. As to conditions: MDA-MB-231, 48 h, read-out: Activity.
The subject of test [20] is MOLT-4. Briefly: Cytotoxicity against human MOLT4 cells assessed as cell growth at 10 uM after 48 hrs by SRB assay relative to control. Format: functional. The following applies: MOLT-4, 48 h, read-out: Activity.
Test [21] deals with UACC-257. Put plainly: Cytotoxicity against human UACC257 cells assessed as cell growth at 10 uM after 48 hrs by SRB assay relative to control. It counts as functional. The following applies: UACC-257, 48 h, read-out: Activity.
Test [22] concerns OVCAR-5. Put plainly: Cytotoxicity against human OVCAR5 cells assessed as cell growth at 10 uM after 48 hrs by SRB assay relative to control. It counts as functional. As to conditions: OVCAR-5, 48 h, read-out: Activity.
The test system of test [23] is CCRF-CEM. Briefly: Cytotoxicity against human CCRF-CEM cells assessed as cell growth at 10 uM after 48 hrs by SRB assay relative to control. It counts as functional. The following applies: read-out: Activity.
Test [24] deals with OVCAR-4. Briefly: Cytotoxicity against human OVCAR4 cells assessed as cell growth at 10 uM after 48 hrs by SRB assay relative to control. Format: functional. The following applies: OVCAR-4, 48 h, read-out: Activity.
The test system of test [25] is SN12C. Put plainly: Cytotoxicity against human SN12C cells assessed as cell growth at 10 uM after 48 hrs by SRB assay relative to control. It counts as functional. As to conditions: read-out: Activity.

As to `Cn1cc(-c2nc(N)[nH]c(=O)c2-c2cn(C)c3ccccc23)c2ccccc21`, the growth at 10 µM in [1] is 103%; in test [2], 112%; in [3], 110%; in [4] it was 77.6%; in [5] it was 85.3%; in test [6], 86.7%. For the same molecule, the growth at 10 µM in test [7] was determined as 122%; in test [8], 94.3%; in test [9], 90.7%; in test [10], 120%; in test [11] it was 95%; in test [12] it was 102%. Moreover, the growth at 10 µM in test [13] was 104%; in [14] it was 109%; in [16] it was 88.6%; in test [17], 103%; in [18] it was 131%; in [19], 105%. The growth at 10 µM stood at 105% in test [20] and 95.6% in [21]. Further, in [15], the inhibition result is “inactive”.
`Cn1c2ccccc2c2c3c(=O)[nH]c(N)nc3c3c4cccnc4n(C)c3c21`: the growth at 10 µM in test [1] is 74.1%; in test [2], 119%; in test [3], 63.3%; in test [22] it was 98.8%; in test [4], 45.2%; in test [5], 84.1%. The growth at 10 µM in test [23] was 65.3%; in test [6], 35%; in test [8], 78%; in test [24], 80.1%; in [9], 94.1%; in [10], 104%. The growth at 10 µM in test [11] is 86.3%; in test [12], 66%; in test [25] it was 91%; in test [14] it was 98.2%; in test [17], 72.8%; in [18] it was 87.4%. The figures for the growth at 10 µM in test [19], in test [20] and in test [21] were 79.4%, 74.4% and 129%, respectively. The inhibition entry in [15] was “inactive”.
Turning to `Cn1cc(-c2[nH]c(=O)[nH]c(=O)c2-c2cn(C)c3ccccc23)c2ccccc21`, the growth at 10 µM in [1] is 70.2%; in test [2] it was 98.6%; in test [4], 60.1%; in test [5] it was 83.3%; in test [23] it was 87.6%; in [6], 93.1%. The growth at 10 µM in [7] was determined as 111%; in test [9], 97.1%; in test [10] it was 109%; in test [11], 91.4%; in [12], 95.8%; in [13], 96.3%. Also, the growth at 10 µM in test [25] amounted to 110%; in test [14], 97.3%; in [16], 105%; in [18], 111%; in test [21], 82.1%. Moreover, in [15], the inhibition entry is “inactive”.
For `Cn1cc(-c2c(-c3cn(C)c4ncccc34)nc(N)[nH]c2=O)c2ccccc21`, the growth at 10 µM in test [1] is 87.5%; in test [2], 107%; in test [3], 90.4%; in test [22], 106%; in test [4], 86%; in test [5], 91.5%. In addition, the growth at 10 µM in [23] was determined as 92.5%; in test [6], 88%; in test [7], 106%; in test [8] it was 98.5%; in test [24], 88%; in test [9] it was 98.2%. For the same molecule, the growth at 10 µM worked out at 109% in test [10]; 92.6% in test [11]; 95.8% in test [12]; 106% in test [13]; 104% in test [25]; 99.7% in [14]. For the same molecule, the growth at 10 µM in [16] came to 95.3%; in test [17], 105%; in test [18], 124%; in test [19], 96.4%; in test [20], 97.1%; in test [21], 103%.
